Results published in patent US20120225097A1, “PIPERAZINECARBOXAMIDE DERIVATIVE USEFUL AS A MODULATOR OF FATTY ACID AMIDE HYDROLASE (FAAH)” (priority 2009, published 2012).
Counter-ions that a name gives are not always drawn.

Tests used:
human FAAH = molecular target: T1, human FAAH (Homo sapiens, UniProt O00519); assay: Assay Method 1: FAAH assay, anandamide hydrolysis in cell homogenate; format: biochemical; conditions: average value (standard error of the mean in parenthesis); 3H-AEA 80 nM, 1 h rt
T1 construct: expressed in transfected cells
T1 sequence (O00519 1-579): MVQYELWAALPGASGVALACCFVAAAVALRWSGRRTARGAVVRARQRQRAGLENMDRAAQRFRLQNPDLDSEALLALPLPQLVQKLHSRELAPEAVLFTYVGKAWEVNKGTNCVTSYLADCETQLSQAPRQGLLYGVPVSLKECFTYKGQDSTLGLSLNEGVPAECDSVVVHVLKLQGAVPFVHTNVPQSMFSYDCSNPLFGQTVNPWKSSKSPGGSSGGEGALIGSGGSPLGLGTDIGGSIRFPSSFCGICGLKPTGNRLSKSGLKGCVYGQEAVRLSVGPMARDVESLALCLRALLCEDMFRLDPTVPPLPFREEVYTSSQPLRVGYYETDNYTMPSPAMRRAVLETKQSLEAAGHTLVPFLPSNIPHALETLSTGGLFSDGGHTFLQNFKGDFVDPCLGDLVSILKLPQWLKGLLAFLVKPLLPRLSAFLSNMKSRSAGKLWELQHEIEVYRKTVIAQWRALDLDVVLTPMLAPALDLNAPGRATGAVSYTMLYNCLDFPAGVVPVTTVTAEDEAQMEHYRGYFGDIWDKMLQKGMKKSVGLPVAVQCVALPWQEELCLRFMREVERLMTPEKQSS
Experimental: A. Transfection of Cells with Human FAAH
A 10-cm tissue culture dish with a confluent monolayer of SK-N-MC cells was split 2 days (d) prior to transfection. Using sterile technique, the media was removed and the cells were detached from the dish by the addition of trypsin. One fifth of the cells were then placed onto a new 10-cm dish. Cells were grown in a 37° C. incubator with 5% CO2 in Minimal Essential Media Eagle with 10% Fetal Bovine Serum. After 2 d, cells were approximately 80% confluent. These cells were removed from the dish with trypsin and pelleted in a clinical centrifuge. The pellet was re-suspended in 400 μL complete media and transferred to an electroporation cuvette with a 0.4 cm gap between the electrodes. Supercoiled human FAAH cDNA (1 μg), corresponding to NCBI accession NM_001441, was added to the cells and mixed. The voltage for the electroporation was set at 0.25 kV, and the capacitance was set at 960 μF. After electroporation, the cells were diluted into complete media (10 mL) and plated onto four 10-cm dishes. Due to variability in the efficiency of electroporation, four different concentrations of cells were plated. The ratios used were 1:20, 1:10, and 1:5, with the remainder of the cells being added to the fourth dish. The cells were allowed to recover for 24 h before adding the selection media (complete media with 600 μg/mL G418). After 10 d, dishes were analyzed for surviving colonies of cells. Dishes with well-isolated colonies were used. Cells from individual colonies were isolated and tested.
T84 frozen cell pellets or transfected SK-N-MC cells (contents of 1×15 cm culture dishes) were homogenized in 50 mL of FAAH assay buffer (125 mM Tris, 1 mM EDTA, 0.2% Glycerol, 0.02% Triton X-100, 0.4 mM Hepes, pH 9). The assay mixture consisted of 50 μL of the cell homogenate, 10 μL of the test compound, and 40 μL of anandamide [1-^3H-ethanolamine] (^3H-AEA, Perkin-Elmer, 10.3 Ci/mmol), which was added last, for a final tracer concentration of 80 nM. The reaction mixture was incubated at rt for 1 h. […]

heart muscle = assay: Assay Method 4: rat screening toxicity protocol; format: in vivo; conditions: 300 mg/kg daily oral, up to 4 days, male rats
Experimental: Rat Screening Toxicity Protocol
Male Crl:CD® (SD) rats approximately 8 weeks of age and weighing approximately 200 to 350 grams at initiation of dosing, were supplied by Charles River Laboratories, Hollister, Calif. Rats were individually housed in solid bottom plastic cages with 0.25 inch Cobb Bedding. Study rooms were maintained on a 12-hour light/dark cycle, with a temperature range of 64 to 79° F., and a relative humidity range of 30 to 70%. Rats were fed ad libitum (except where noted) with Rodent Diet 5008 supplied by PMI® Nutrition International, Richmond, Ind. Water was provided ad libitum by an automatic watering system and/or water bottles. The animals were quarantined for at least 5 days (prior to treatment period). Rats were selected on the basis of predose evaluations and randomly assigned to groups using a computer-generated randomization method based on body weight.
A vehicle treated group was dosed to match the highest dose volume (mL/kg) used. The test compound was administered orally daily. Test compounds were stored at room temperature. 4-({3-[(4-chlorophenyl)oxy]phenyl}methyl)-N-pyridin-3-ylpiperazine-1-carboxamide was dosed in solution using 20% cyclodextrin as the vehicle. N-pyridin-3-yl-4-{3-[4-(trifluoromethyl)phenoxy]benzyl}piperazine-1-carboxamide bis-hydrochloride dihydrate was dosed in solution using water as the vehicle. Rats in the vehicle treated and test article treated were dosed for up to 4 days. Mortality checks were performed at least once a day on all animals pre-dose and post-dose. Clinical observations were performed at least once during the pre-dose period. Clinical observations were recorded prior to dosing, at least once after daily dosing, and prior to scheduled necropsy for animals assessed for toxicology. Body Weights were determined at least once during the pre-dose period, prior to the first dose, once during dose administration and once after the last dose, and once prior to necropsy for tissue body weight ratios. […] Observations were recorded at necropsy and tissue trimming. […] Clinical pathology was not determined on these animals. […]

`O=C(Nc1cccnc1)N1CCN(Cc2cccc(Oc3ccc(Cl)cc3)c2)CC1` [4-({3-[(4-Chlorophenyl)oxy]phenyl}methyl)-N-pyridin-3-ylpiperazine-1-carboxamide] was tested, and the IC50 (human FAAH) was 2.4 nM and the “lesions in heart muscle” value (heart muscle) was “developed lesions in heart muscle”.
`O=C(Nc1cccnc1)N1CCN(Cc2cccc(Oc3ccc(Br)cc3)c2)CC1` [4-[3-(4-Bromophenoxy)benzyl]-N-pyridin-3-ylpiperazine-1-carboxamide] gave an IC50 (human FAAH) of 1 nM.
For `O=C(Nc1cccnc1)N1CCN(Cc2cccc(Oc3ccc(C(F)(F)F)cc3)c2)CC1` [Example 1, N-Pyridin-3-yl-4-{3-[4-(trifluoromethyl)phenoxy]benzyl}piperazine-1-carboxamide, bis-hydrochloride dihydrate], the IC50 (human FAAH) was 1 nM, the “lesions in heart muscle” value (heart muscle; listed as N-pyridin-3-yl-4-{3-[4-(trifluoromethyl)phenoxy]benzyl}piperazine-1-carboxamide , bis-hydrochloride dihydrate) was “absent” and the “lesions in heart muscle” value (heart muscle; listed as N-pyridin-3-yl-4-{3-[4-(trifluoromethyl)phenoxy]benzyl}piperazine-1-carboxamide, bis-hydrochloride dihydrate) was “lacked such lesions”.
